Data: patent publication US5830697A, “P-glycoprotein mutant resistant to cyclosporin modulation” (The Board of Trustees of the Leland Stanford Junior …, priority 1997, dated 1998)
Read-outs that look alike come from different tables or passages of the source.

Assays:
[1] = tested on: MES-SA/DxP5002 (DxP) cells; assay: Growth inhibition (MTT) assay, with or without MDR modulators
Description: Cells and Tissue Culture. […] Monolayer cultures of MES-SA cells and its variants were grown in McCoy's medium (Irvine Scientific, Santa Ana, Calif.) supplemented with 10% newborn calf serum (Gibco, Grand Island, N.Y.), 2 mM L-glutamine, and antibiotics(100 U/ml penicillin, 100 μg/ml streptomycin).
Growth Inhibition Assay. Approximately 8000 cells per well were seeded in 96 well plates and incubated with or without drugs for 72 hr at 37° C. in an atmosphere of 5% CO2. Growth inhibition was evaluated by the MTT colorimetric assay in triplicate or quadruplicate as previously described. The absorbance was measured with a ThermoMax microplate reader (Molecular Devices, Menlo Park, Calif.). […] The doubling times of MES-SA, D×5, and D×P were determined as previously described.
(§1) Reversal of MDR by Modulators. […] The modulation ratio was obtained by comparing IC50 s in the presence and absence of modulators.

[2] = tested on: MES-SA/Dx5 (Dx5) cells; assay: as above; type: cell-based, human
Description: (§2) Cells and Tissue Culture. Details of the development and characterization of the human cell line MES-SA and its MDR variant MES-SA/Dx5 (D×5), which were derived from sarcoma elements of a uterine mixed Mullerian tumor, are described in Harker and Sikic (1985) Cancer Research 45:3810-3815. MES-SA/DxP5002 (DxP) cells were derived from Dx5.05 cells (D×5 cells selected and maintained at a DOX concentration of 0.5 μM) by step-wise selection in the presence of increasing DOX concentrations (from 40 nM up to 0.5 μM) and a constant PSC 833 concentration at 2 μM over a one-year period. Monolayer cultures of MES-SA cells and its variants were grown in McCoy's medium (Irvine Scientific, Santa Ana, Calif.) supplemented with 10% newborn calf serum (Gibco, Grand Island, N.Y.), 2 mM L-glutamine, and antibiotics(100 U/ml penicillin, 100 μg/ml streptomycin).
(§3) Growth Inhibition Assay. Approximately 8000 cells per well were seeded in 96 well plates and incubated with or without drugs for 72 hr at 37° C. in an atmosphere of 5% CO2. Growth inhibition was evaluated by the MTT colorimetric assay in triplicate or quadruplicate as previously described. The absorbance was measured with a ThermoMax microplate reader (Molecular Devices, Menlo Park, Calif.). The IC50 (drug concentration resulting in 50% inhibition of MTT dye formation, compared to controls) was determined directly from semi-logarithmic dose-response curves. The doubling times of MES-SA, D×5, and D×P were determined as previously described.
as §1

[3] = tested on: MES-SA cells; assay: as above; type: cell-based, human; conditions: MES-SA cells
Description: as §2, §3, §1

[4] = tested on: Dx/PAS cells; assay: MTT assay, DxP subclone; type: cell-based, human
Description: as §3, §1
(§4) Clonal Analysis of D×P cells. Subcloning of cells was performed by limiting dilution. Both resistant and revertant clones were analyzed for the MDR phenotype, drug accumulation, and rt-PCR or heteroduplex as described above.

[5] = tested on: Dx/PDS cells; assay: MTT assay, DxP subclone; type: cell-based, human
Description: as §3, §1, §4

[6] = tested on: Dx/PBS cells; assay: MTT assay, DxP subclone; type: cell-based, human
Description: as §3, §1, §4

[7] = tested on: Dx/PFS cells; assay: MTT assay, DxP subclone; type: cell-based, human
Description: as §3, §1, §4

[8] = tested on: Dx/PJS cells; assay: MTT assay, DxP subclone; type: cell-based, human
Description: as §3, §1, §4

[9] = tested on: Dx/PGS cells; assay: MTT assay, DxP subclone; type: cell-based, human
Description: as §3, §1, §4

[10] = tested on: Dx/PCS cells; assay: MTT assay, DxP subclone; type: cell-based, human
Description: as §3, §1, §4

[11] = tested on: Dx/PHS cells; assay: MTT assay, DxP subclone; type: cell-based, human
Description: as §3, §1, §4

[12] = tested on: Dx/PMS cells; assay: MTT assay, DxP subclone; type: cell-based, human
Description: as §3, §1, §4

[13] = tested on: Dx/PIS cells; assay: MTT assay, DxP subclone; type: cell-based, human
Description: as §3, §1, §4

[14] = tested on: Dx/PES cells; assay: MTT assay, DxP subclone; type: cell-based, human
Description: as §3, §1, §4

[15] = tested on: Dx5 cells; assay: Rh-123 retention, flow cytometry; type: cell-based, human; conditions: PSC 833 2 μM
Description: Flow Cytometric Analysis. The flow cytometric analysis of Rh-123 retention and P-gp expression were determined by a dual laser flow cytometer (FACS-II™; Becton Dickinson Corp., Mountain View, Calif.). Double labeling with Rh-123 and the monoclonal antibody UIC2 (Immunotech Coporation, Westbrook, Me.) was performed as previously described. Briefly, following the Rh-123 incubation step, cells were treated with UIC2 (40 μg/ml) and then reacted with either Texas Red or FITC-conjugated goat anti-mouse IgG2a secondary antibody (Caltag, So. San Francisco, Calif,). Cells were centrifuged through a calf serum cushion, resuspended in 200 μl of modified ice-cold Hank's balanced salt solution, and analyzed by flow cytometry.

[16] = target: P-gp of DxP cells (Phe335/336 deletion) (Homo sapiens, UniProt P08183, DEL335-335)
P-gp of DxP cells (Phe335/336 deletion), sequence (P08183 with tags, fused parts or gaps DEL335-335): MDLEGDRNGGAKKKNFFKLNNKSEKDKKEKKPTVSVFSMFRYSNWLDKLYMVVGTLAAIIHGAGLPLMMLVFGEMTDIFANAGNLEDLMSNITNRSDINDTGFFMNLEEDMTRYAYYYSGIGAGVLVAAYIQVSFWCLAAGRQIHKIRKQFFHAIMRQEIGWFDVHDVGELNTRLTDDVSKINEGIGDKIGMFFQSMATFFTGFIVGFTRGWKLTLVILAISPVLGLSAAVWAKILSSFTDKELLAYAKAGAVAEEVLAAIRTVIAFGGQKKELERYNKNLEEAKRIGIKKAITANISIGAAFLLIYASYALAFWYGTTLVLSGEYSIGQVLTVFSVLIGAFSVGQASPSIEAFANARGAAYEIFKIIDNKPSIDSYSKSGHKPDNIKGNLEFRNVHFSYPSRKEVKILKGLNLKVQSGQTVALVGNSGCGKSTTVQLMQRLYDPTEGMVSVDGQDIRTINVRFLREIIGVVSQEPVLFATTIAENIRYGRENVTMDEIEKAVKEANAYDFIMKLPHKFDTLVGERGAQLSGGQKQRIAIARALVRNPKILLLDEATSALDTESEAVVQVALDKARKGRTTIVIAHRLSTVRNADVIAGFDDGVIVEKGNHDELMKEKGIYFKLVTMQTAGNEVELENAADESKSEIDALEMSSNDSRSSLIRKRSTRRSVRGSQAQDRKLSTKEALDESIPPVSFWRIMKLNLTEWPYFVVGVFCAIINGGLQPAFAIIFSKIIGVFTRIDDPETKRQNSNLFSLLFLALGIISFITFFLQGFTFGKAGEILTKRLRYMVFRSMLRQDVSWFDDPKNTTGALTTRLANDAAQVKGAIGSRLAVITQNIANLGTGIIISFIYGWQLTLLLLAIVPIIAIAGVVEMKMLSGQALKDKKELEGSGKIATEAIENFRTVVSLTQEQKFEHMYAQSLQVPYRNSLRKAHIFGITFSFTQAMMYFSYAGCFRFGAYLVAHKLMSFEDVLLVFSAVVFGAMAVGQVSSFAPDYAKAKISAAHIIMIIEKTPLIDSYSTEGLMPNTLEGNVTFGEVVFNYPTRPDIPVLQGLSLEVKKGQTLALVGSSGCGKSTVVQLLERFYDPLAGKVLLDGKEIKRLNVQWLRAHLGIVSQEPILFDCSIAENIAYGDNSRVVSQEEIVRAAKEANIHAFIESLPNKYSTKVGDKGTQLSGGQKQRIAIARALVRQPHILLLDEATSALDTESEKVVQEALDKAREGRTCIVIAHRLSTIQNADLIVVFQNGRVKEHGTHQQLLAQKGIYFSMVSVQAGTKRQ
Description: (§6) Photoaffinity Labeling with [^25 -I]-iodoarylazidoprazesin and [^3 H]-Azidopine. […] These preparations were incubated at 25° C. for 1 hour in the dark, followed by a 20 min exposure to a 366 nm UV source (UVP, Inc., San Gabriel, Calif.). 50 μl of loading buffer was added and proteins separated on an 8% SDS-polyacrylamide gel, dried, and analyzed by autoradiography.

[17] = tested on: Dx5 cells; assay: Cellular accumulation of [3H]-labeled drugs; type: cell-based, human
Description: (§5) Cellular Accumulation of [^3 H]-Daunorubicin, [^3 H]-Vinblastine, and [^3 H]Cyclosporine. lntracellular drug accumulation was quantified using radiolabeled drugs in a modified assay. The cells were seeded in 35×10 mm tissue culture dishes (Falcon, Becton Dickinson, Lincoln Park, N.J.), at 1×10^6 cells/dish. After overnight incubation, the growth medium was replaced with serum-free McCoy's 5A medium supplemented with 40 mM Hepes buffer (Sigma Chemicals, St. Louis, Mo.). Radiolabeled drugs were added at the appropriate concentration and incubated for 1 hr at 37° C. The medium was aspirated and cell pellet solubilized in 4% SDS at 65° C. for 1 hr. Ecolite™ scintillation cocktail (INC Biochemicals, Costa Mesa, Calif.) was added and radioactivity determined on an LS-9000 scintillation counter (Beckman Instruments, Brea, Calif.). All values were normalized to protein content.

[18] = tested on: DxP cells; assay: Cellular accumulation of [3H]-labeled drugs; type: cell-based, human; conditions: DxP cells
Description: as §5

[19] = target: P-gp of Dx5 cells (Homo sapiens, UniProt P08183)
P-gp of Dx5 cells, sequence (P08183 whole entry): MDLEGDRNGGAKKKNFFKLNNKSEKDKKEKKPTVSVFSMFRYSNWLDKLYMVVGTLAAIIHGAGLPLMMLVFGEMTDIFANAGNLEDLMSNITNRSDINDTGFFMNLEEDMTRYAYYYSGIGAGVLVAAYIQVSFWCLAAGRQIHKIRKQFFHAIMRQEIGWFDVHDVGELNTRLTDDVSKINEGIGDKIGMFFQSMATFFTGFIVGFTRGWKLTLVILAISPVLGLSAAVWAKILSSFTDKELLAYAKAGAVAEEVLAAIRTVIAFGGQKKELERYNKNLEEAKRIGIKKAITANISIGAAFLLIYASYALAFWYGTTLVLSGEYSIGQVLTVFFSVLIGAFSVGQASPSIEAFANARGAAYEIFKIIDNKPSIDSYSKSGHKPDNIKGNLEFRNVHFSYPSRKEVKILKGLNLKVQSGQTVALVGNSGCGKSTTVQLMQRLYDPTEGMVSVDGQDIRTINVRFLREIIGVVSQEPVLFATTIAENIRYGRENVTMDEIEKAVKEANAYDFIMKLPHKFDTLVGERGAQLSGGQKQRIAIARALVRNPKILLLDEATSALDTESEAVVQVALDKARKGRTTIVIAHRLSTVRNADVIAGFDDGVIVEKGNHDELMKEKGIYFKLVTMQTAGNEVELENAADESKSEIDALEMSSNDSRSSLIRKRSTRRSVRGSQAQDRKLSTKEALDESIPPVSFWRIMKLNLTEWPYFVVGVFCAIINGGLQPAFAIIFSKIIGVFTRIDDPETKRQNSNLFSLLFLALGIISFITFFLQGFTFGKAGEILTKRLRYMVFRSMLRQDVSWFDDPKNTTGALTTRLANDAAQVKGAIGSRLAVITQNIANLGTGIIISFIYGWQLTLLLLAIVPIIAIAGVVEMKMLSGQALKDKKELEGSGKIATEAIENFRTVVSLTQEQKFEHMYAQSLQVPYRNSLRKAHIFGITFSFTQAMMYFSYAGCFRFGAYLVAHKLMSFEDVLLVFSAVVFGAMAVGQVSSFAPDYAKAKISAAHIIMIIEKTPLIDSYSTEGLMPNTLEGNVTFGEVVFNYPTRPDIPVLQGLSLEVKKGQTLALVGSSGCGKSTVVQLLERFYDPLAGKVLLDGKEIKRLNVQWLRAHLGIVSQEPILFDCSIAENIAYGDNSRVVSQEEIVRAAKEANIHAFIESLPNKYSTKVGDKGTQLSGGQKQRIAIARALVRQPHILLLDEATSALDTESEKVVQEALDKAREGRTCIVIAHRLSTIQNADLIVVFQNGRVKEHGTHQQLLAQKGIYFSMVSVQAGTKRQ
Description: as §6

With `COc1cccc2c1C(=O)c1c(O)c3c(c(O)c1C2=O)C[C@@](O)(C(=O)CO)C[C@@H]3O[C@H]1C[C@H](N)[C@H](O)[C@H](C)O1` [Doxorubicin] the “Level of resistance of DxP cells to the cytotoxin compared with parental Dx5 (in words)” value ([1]; DxP cells) was “similar”, the Fold resistance ([1]; DxP cells, +2 μM PSC 833) was 53 fold and the Fold resistance ([1]; DxP cells, +3 μM cyclosporin A) was 30 fold. The Fold resistance ([1]; DxP cells, +6 μM Verapamil) was 18 fold, the “Fold resistance” value ([1]; DxP cells, no modulator, relative to MES-SA) was 77 fold and the “Dx5/DxP, fold of resistance difference in DxP cells compared with parental Dx5 cells” value ([1]; DxP vs Dx5) was 1 fold. It also gave a Fold resistance ([2]; +2 μM PSC 833) of 1 fold, a Fold resistance ([2]; +3 μM cyclosporin A) of 2 fold and a Fold resistance ([2]; +6 μM Verapamil) of 4 fold. The “Fold resistance” value ([2]; no modulator, relative to MES-SA) was 80 fold, the IC50 ([3]; Homo sapiens, 72 hr MTT, read-out: IC50 of drug-sensitive MES-SA cells (values in parenthesis)) was 40 nM and the Fold resistance ([3]; +2 μM PSC 833) was 1 fold. The Fold resistance ([3]; +3 μM cyclosporin A) was 0.5 fold, the Fold resistance ([3]; +6 μM Verapamil) was 0.5 fold and the “Fold resistance” value ([3]; no modulator, 72 hr MTT) was 1 fold. For the same compound, the “fold resistance relative to MES-SA” value ([4]; + PSC) was 51 fold, the “fold resistance relative to MES-SA” value ([4]; no modulator) was 163 fold and the “fold resistance relative to MES-SA” value ([5]; + PSC) was 100 fold. The “fold resistance relative to MES-SA” value ([5]; no modulator) was 150 fold, the “fold resistance relative to MES-SA” value ([6]; + PSC) was 13 fold and the “fold resistance relative to MES-SA” value ([6]; no modulator) was 67 fold. For the same compound, the “fold resistance relative to MES-SA” value ([7]; + PSC) was 75 fold, the “fold resistance relative to MES-SA” value ([7]; no modulator) was 150 fold and the “fold resistance relative to MES-SA” value ([8]; + PSC) was 75 fold. The “fold resistance relative to MES-SA” value ([8]; no modulator) was 175 fold, the “fold resistance relative to MES-SA” value ([9]; + PSC) was 7 fold and the “fold resistance relative to MES-SA” value ([9]; no modulator) was 7 fold. The “fold resistance relative to MES-SA” value ([10]; + PSC) was 23 fold, the “fold resistance relative to MES-SA” value ([10]; no modulator) was 50 fold and the “fold resistance relative to MES-SA” value ([11]; + PSC) was 37 fold. For the same compound, the “fold resistance relative to MES-SA” value ([11]; no modulator) was 83 fold, the “fold resistance relative to MES-SA” value ([12]; + PSC) was 50 fold and the “fold resistance relative to MES-SA” value ([12]; no modulator) was 100 fold. For the same compound, the “fold resistance relative to MES-SA” value ([13]; + PSC) was 3 fold, the “fold resistance relative to MES-SA” value ([13]; no modulator) was 13 fold and the “fold resistance relative to MES-SA” value ([14]; + PSC) was 100 fold. The “fold resistance relative to MES-SA” value ([14]; no modulator) was 96 fold.
With `C/C=C/C[C@@H](C)C(=O)[C@H]1C(=O)N[C@@H](C(C)C)C(=O)N(C)CC(=O)N(C)[C@@H](CC(C)C)C(=O)N[C@@H](C(C)C)C(=O)N(C)[C@@H](CC(C)C)C(=O)N[C@@H](C)C(=O)N[C@H](C)C(=O)N(C)[C@@H](CC(C)C)C(=O)N(C)[C@@H](CC(C)C)C(=O)N(C)[C@@H](C(C)C)C(=O)N1C` [PSC 833] the “Resistance of cells to the modulating effects of the modulator (in words)” value ([1]; DxP cells, PSC 833 2 μM, cyclosporin 3 μM, verapamil 6 μM) was “almost completely resistant”, the “Modulation of MDR by the modulator (in words)” value ([2]; 2 μM, sensitivity to DOX, vinblastine, paclitaxel, vincristine and colchicine relative to MES-SA) was “completely restored the sensitivity” and the “Effect of modulator on Rh-123 accumulation” value [15] was “completely restored”. For the same compound, the “Displacement of [3H]-azidopine photoaffinity labeling” value [16] was “resistant to the displacement”, the “Effect on [125I]-iodoarylazidoprazosin photoaffinity labeling of P-gp” value (“Effect … of P-gp” below) ([16]; 100 μM) was “abolished detectable P-gp labeling” and the “Effect … of P-gp” value ([16]; 0.1 and 10 μM) was “enhanced photoaffinity binding”. For the same compound, the “Modulation of decreased drug accumulation by modulator” value [17] was “complete modulation”, the “Modulation of decreased [3H]-cyclosporin accumulation by modulator” value ([17]; to levels of DxP and MES-SA cells) was “completely modulated” and the “Modulation of decreased drug accumulation by modulator” value [18] was “not modulated”. The “Effect … of P-gp” value ([19]; 100 μM) was “abolished detectable P-gp labeling” and the “Effect … of P-gp” value ([19]; 0.1 and 10 μM) was “effectively competed”.
